ChEMBL document CHEMBL1201862, “PubChem BioAssay data set” (2004)
Calls of active or inactive are those of the source.

What was measured:
[1] = HeLa cell cytotoxicity, dose response, cytotoxicity control for MgcRacGAP inhibitor project (AID 624300); assay type: functional
[2] = biological target: T1, Rac GTPase-activating protein 1 (Homo sapiens, UniProt Q9H0H5); test: MgcRacGAP GTPase-activating activity inhibitors, confirmation, biochemical, ADP Hunter fluorescence, primary and confirmatory (AID 624330); assay type: functional
T1 sequence (Q9H0H5 whole entry): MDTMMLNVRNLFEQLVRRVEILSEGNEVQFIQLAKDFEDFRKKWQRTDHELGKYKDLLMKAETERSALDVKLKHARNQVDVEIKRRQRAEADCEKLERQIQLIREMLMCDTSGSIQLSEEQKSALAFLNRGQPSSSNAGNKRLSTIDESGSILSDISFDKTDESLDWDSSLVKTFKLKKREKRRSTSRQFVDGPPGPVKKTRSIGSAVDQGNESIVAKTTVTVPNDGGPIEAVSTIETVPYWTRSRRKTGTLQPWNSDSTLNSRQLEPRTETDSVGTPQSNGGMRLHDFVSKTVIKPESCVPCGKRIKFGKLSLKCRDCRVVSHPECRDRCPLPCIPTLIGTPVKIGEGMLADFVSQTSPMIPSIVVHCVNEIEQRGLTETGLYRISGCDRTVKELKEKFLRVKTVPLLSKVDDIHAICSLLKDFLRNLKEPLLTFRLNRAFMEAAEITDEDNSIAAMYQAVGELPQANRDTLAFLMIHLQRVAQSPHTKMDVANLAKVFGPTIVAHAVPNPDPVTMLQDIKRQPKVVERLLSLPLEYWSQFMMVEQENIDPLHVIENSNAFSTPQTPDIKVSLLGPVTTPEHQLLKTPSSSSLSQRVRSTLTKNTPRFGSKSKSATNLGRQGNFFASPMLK

Beta-galactosidase = Beta-galactosidase (Escherichia coli, UniProt Q8VNN2); test: Dose response counterscreen for EBI2 assay utilizing the enzyme, b-galactosidase.; assay type: functional
Beta-galactosidase, sequence (Q8VNN2 whole entry): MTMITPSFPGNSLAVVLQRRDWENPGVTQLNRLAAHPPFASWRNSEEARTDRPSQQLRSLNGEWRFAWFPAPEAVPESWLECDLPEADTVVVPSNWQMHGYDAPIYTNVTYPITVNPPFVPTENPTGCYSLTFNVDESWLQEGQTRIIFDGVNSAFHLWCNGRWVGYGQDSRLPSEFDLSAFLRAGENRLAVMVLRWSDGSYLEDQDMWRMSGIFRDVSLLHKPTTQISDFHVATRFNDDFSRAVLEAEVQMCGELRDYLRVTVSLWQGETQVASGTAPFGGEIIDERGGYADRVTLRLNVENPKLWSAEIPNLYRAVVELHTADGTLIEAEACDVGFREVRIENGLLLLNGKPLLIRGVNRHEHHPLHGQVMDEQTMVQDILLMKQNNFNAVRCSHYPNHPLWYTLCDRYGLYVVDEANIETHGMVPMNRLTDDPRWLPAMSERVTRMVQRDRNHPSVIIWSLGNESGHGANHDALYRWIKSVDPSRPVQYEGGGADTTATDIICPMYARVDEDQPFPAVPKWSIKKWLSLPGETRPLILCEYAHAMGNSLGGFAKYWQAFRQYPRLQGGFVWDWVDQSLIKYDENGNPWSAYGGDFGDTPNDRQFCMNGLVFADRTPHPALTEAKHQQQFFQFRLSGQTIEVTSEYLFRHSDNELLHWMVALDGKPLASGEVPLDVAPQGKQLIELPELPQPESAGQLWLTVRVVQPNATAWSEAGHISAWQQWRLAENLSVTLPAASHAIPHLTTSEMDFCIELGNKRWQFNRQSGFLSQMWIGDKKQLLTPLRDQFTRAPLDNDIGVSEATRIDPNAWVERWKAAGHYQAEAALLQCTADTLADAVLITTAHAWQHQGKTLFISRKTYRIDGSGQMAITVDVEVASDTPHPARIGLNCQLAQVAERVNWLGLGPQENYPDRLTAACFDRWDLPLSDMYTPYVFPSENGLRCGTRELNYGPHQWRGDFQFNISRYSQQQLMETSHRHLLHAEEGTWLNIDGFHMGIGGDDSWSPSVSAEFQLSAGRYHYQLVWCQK

cells [3] = assay type: functional, cell-based
cells [4] = assay type: functional, cell-based; remark: listed apart in the source
Vero = test: Vero cell toxicity, dose response, cytotoxicity control, plate reader, cherry-pick samples (AID 687020); assay type: functional, cell-based; conditions: Chlorocebus sabaeus
[5] = biological target: T2, Heat shock factor protein 1 (Mus musculus, UniProt P38532); test: inhibition of MG132-induced HSE-luciferase signal, confirmation, cell-based, NIH3T3, luminescence, dose retest (AID 2382); assay type: functional;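 further: NIH3T3 fibroblasts with HSF1-driven luciferase reporter stressed by proteasome inhibitor MG132; luminescence from HSF1-driven luciferase expression after 8 hours of MG132 stress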
T2 sequence (P38532 whole entry): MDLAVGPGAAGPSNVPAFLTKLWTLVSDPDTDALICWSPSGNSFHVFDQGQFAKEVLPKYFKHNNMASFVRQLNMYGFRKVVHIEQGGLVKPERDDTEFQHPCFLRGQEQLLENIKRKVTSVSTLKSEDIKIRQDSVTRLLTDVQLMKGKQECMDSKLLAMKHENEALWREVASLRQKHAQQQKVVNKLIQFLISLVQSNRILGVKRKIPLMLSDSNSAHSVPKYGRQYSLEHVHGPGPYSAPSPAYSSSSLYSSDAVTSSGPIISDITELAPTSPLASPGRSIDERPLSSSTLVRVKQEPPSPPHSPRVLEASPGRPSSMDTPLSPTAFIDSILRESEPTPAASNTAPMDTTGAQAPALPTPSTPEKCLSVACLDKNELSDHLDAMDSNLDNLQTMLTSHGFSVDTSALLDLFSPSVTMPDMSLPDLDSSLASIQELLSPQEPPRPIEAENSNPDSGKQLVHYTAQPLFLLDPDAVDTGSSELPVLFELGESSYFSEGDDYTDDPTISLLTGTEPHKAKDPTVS

[6] = A375 melanoma cell viability loss, dose response, counter-screen for MITF inhibitor project, CellTiter-Glo luminescence, dry powder, set 4 (AID 624364); assay type: functional, cell-based; conditions: A-375;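 further: A375 melanoma cells are MITF independent so this is a counter screen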
[7] = A375 melanoma cell cytotoxicity, dose response, counter-screen for MITF inhibitor project, CellTiter-Glo luminescence, dry powder, set 2 (AID 624489); assay type: functional, cell-based; conditions: A-375;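 further: actives are compounds lowering A375 viability meaning general cytotoxicity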
[8] = miR-122 activators in hepatoma reporter cells, dose response, cell-based, Huh7 psiCHECK-miR122, Renilla luciferase, cherry-picked (AID 651956); assay type: functional;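 further: huh7 hepatoma cells stably carrying a psiCHECK-2 miR-122 sensor plasmid; renilla luciferase signal reporting endogenous miR-122 activity after 48 h compound exposure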
[9] = HEK293T cytotoxicity, dose response, cytotoxicity control for miR-122 modulator project, cell-based, inhibitor set, cherry-pick, set 2 (AID 720697); assay type: functional
Cytochrome P450 2D6 = Cytochrome P450 2D6 (Homo sapiens, UniProt P10635);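 further: CYP2D6 member of a cytochrome P450 panel assay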
Cytochrome P450 2D6, sequence (P10635 whole entry): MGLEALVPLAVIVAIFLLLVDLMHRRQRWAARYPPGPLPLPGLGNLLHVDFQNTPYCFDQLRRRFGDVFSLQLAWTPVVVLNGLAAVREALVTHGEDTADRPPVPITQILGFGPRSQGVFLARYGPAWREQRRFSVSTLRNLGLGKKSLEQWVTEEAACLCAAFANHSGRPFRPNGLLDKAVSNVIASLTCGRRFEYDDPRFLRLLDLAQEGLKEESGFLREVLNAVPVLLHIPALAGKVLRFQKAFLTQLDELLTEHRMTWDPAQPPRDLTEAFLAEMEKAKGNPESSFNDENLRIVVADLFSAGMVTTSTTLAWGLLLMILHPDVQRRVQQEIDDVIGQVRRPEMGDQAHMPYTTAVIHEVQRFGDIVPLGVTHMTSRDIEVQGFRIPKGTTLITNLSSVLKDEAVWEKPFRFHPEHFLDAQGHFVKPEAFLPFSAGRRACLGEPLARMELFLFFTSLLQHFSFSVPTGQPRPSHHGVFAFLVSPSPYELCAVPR

Cytochrome P450 2C9 = Cytochrome P450 2C9 (Homo sapiens, UniProt P11712)
Cytochrome P450 2C9, sequence (P11712 whole entry): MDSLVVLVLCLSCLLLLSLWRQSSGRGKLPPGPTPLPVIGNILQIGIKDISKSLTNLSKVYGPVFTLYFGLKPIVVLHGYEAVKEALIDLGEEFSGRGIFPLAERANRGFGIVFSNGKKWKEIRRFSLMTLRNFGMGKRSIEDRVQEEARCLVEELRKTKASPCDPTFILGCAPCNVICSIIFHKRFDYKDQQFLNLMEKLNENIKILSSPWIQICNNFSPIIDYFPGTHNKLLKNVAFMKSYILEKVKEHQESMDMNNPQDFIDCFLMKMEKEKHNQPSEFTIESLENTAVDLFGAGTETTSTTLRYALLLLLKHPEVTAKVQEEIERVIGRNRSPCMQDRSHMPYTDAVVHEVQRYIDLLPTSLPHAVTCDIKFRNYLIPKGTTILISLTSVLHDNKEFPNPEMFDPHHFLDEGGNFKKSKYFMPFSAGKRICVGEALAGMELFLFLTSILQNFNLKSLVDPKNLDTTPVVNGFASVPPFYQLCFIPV

cells [10] = assay type: functional, cell-based; remark: listed apart in the source
Cytochrome P450 3A4 = Cytochrome P450 3A4 (Homo sapiens, UniProt P08684);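 further: CYP3A4 tested as one member of a cytochrome P450 panel screen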
Cytochrome P450 3A4, sequence (P08684 whole entry): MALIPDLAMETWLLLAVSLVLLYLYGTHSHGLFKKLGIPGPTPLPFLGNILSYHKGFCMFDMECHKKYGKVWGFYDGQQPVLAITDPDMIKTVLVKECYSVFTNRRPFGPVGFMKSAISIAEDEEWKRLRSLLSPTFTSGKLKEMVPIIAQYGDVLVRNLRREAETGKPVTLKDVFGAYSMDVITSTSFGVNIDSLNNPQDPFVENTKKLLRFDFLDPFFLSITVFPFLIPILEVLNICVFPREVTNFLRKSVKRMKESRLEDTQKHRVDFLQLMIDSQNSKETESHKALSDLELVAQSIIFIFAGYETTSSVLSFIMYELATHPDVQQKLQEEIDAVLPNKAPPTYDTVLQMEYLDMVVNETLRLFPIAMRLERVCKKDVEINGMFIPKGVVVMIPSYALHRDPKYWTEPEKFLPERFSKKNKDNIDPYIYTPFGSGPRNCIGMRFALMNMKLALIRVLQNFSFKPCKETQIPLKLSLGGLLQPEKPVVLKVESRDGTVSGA

[11] = biological target: T3, Nuclear receptor subfamily 0 group B member 1 (Homo sapiens, UniProt P51843); assay type: functional, cell-based;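 further: HEK293T cells transfected with SF-1 and DAX-1 plus StAR promoter luciferase reporter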
T3 sequence (P51843 whole entry): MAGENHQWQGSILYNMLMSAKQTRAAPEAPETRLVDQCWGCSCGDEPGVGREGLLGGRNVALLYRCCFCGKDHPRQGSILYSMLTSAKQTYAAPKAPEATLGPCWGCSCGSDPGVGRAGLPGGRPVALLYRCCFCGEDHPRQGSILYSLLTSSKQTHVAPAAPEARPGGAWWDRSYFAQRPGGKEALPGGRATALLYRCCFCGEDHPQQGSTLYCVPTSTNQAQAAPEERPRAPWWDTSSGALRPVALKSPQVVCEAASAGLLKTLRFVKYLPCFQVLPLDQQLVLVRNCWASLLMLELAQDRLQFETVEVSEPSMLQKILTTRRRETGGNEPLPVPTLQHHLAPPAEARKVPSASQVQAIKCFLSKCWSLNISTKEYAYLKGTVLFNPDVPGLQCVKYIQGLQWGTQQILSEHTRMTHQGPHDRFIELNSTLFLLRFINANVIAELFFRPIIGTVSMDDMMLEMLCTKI

Paired box protein Pax-8 = Paired box protein Pax-8 (Homo sapiens, UniProt Q06710); test: inhibitors of PAX8-driven TPO luciferase reporter, dose response, RMG-I cells, cherry-pick (AID 687027); assay type: functional, cell-based;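 further: luciferase reporter driven by Pax8 target thyroperoxidase promoter measured by SteadyGlo luminescence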
Paired box protein Pax-8, sequence (Q06710 whole entry): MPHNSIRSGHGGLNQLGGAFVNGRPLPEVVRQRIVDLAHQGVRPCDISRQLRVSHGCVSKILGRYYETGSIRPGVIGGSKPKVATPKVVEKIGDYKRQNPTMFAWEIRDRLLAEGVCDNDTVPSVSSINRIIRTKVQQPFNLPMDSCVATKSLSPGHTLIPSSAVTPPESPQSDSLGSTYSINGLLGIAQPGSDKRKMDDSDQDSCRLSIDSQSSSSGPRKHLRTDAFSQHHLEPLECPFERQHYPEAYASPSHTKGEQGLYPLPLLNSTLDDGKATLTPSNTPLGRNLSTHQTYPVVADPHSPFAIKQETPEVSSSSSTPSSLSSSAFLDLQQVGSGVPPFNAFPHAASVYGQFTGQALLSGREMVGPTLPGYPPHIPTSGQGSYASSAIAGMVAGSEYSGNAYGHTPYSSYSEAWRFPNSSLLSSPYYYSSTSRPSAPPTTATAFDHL

[12] = non-specific cell cytotoxicity, dose response, cytotoxicity control for PAX8 inhibitor project, plate reader, dry powder samples (AID 743021); assay type: functional, cell-based
[13] = biological target: T4, Small ubiquitin-related modifier 1 (Homo sapiens, UniProt P63165); test: inhibitors of SUMO1 partner interactions, dose response, biochemical, FRET (AID 624383); assay type: functional; conditions: read-out: IC50_Mean
T4 sequence (P63165 whole entry): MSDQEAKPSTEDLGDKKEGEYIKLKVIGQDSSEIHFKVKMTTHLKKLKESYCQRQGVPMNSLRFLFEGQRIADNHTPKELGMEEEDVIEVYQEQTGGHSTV

[14] = biological target: T4, Small ubiquitin-related modifier 1; test: inhibitors of SUMO1 peptide binding, dose response, biochemical, fluorescence polarization, uHTS hits (AID 624382); assay type: functional; conditions: read-out: IC50_Mean
[15] = biological target: Tyrosyl-DNA phosphodiesterase 2 (Homo sapiens, UniProt O95551); test: human TDP2 enzyme inhibitors, dose response, biochemical, epi absorbance, IC50 (AID 743297)
Tyrosyl-DNA phosphodiesterase 2, sequence (O95551 whole entry): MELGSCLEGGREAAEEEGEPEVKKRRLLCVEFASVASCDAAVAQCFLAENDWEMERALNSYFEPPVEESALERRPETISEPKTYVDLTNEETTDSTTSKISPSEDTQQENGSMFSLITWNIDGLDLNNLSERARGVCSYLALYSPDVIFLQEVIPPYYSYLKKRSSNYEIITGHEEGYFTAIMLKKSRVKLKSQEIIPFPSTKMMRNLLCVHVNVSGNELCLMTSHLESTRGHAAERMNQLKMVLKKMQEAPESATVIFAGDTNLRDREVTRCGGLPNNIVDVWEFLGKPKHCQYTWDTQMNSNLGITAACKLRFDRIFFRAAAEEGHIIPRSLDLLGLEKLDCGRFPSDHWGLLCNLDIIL

[16] = biological target: T5, Mannose-6-phosphate isomerase (Homo sapiens, UniProt P34949); test: human PMI inhibitors, high substrate, primary screen, biochemical, fluorescence intensity, high mannose 6-phosphate (AID 1220)
T5 sequence (P34949 whole entry): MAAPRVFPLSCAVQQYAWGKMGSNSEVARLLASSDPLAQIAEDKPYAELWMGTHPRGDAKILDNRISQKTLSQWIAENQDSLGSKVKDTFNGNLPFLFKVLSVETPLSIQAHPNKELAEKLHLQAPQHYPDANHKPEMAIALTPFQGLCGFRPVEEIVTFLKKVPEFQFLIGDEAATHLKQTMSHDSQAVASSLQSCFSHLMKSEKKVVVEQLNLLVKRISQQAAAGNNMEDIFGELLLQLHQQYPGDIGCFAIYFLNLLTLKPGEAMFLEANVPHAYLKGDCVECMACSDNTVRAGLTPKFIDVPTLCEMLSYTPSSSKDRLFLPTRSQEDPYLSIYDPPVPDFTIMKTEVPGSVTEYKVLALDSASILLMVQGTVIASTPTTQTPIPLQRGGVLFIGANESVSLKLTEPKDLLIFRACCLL

Large T antigen = Large T antigen (Simian virus 40, UniProt P03070); assay type: functional, Betapolyomavirus macacae;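 further: Confirmatory-stage PubChem screen for compounds that inhibit SV40 T antigen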
Large T antigen, sequence (P03070 whole entry): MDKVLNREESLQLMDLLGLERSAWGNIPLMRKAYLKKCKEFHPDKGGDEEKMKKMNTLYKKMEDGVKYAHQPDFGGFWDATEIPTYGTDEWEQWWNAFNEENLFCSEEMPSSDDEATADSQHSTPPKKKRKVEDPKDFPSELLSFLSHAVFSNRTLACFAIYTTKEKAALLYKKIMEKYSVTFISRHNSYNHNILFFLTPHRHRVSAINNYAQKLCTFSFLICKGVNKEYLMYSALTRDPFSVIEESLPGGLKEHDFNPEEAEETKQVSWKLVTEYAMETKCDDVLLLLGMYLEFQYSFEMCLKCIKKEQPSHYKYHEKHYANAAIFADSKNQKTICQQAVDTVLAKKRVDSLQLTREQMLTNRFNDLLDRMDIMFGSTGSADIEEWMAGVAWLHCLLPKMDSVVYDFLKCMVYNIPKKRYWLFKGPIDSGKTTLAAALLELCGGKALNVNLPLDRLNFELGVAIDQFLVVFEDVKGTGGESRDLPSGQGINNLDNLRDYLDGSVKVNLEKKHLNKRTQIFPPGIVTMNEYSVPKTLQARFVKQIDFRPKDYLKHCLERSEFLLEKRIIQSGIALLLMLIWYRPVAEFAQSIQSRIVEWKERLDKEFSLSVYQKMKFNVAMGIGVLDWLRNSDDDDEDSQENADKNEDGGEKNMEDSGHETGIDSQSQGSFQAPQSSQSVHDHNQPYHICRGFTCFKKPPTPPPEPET

[17] = biological target: T6, Histone-lysine N-methyltransferase NSD2 (Homo sapiens, UniProt O96028); assay type: biochemical
T6 sequence (O96028 whole entry): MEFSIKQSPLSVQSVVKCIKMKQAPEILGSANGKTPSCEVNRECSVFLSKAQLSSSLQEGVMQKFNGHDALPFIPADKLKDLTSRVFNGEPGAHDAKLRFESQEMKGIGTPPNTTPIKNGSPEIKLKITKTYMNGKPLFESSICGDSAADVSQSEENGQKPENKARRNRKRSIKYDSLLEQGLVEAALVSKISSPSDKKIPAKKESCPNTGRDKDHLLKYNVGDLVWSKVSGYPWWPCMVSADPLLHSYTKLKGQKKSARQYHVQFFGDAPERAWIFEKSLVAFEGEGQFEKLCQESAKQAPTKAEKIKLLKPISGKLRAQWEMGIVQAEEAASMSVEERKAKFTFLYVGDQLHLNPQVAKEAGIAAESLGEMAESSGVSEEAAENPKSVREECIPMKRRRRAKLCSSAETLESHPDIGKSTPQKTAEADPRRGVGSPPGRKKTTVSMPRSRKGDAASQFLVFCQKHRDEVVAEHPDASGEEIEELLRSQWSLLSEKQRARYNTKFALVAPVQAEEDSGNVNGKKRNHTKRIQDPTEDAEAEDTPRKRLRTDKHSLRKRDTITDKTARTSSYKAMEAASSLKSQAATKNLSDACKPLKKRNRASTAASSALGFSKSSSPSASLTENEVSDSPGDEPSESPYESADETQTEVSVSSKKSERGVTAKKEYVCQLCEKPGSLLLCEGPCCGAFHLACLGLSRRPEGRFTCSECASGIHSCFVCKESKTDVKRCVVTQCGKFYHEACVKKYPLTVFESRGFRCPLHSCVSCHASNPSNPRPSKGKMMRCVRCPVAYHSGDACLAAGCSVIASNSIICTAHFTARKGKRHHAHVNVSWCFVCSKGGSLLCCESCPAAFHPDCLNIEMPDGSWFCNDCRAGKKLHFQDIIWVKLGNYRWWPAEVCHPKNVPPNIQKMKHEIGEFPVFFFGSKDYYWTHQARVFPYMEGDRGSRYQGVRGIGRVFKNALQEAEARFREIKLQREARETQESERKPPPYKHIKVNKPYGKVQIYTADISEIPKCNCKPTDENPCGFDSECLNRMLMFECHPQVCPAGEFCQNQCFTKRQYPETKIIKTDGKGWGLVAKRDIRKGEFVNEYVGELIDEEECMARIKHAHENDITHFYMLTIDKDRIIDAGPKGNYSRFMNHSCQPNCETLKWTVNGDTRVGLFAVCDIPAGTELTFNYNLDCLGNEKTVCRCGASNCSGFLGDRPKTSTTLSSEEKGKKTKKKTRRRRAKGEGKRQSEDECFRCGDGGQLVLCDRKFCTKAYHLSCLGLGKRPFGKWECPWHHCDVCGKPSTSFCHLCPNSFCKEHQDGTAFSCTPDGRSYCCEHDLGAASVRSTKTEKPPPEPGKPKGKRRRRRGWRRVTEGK

SMILES: COc1cc(/C=C2\SC(Nc3ccccc3OC)=NC2=O)ccc1O
- CC50 [1]: 100 µM (active)
- IC50 [2]: 22.2 µM (active)

SMILES: CCN1CCN(C(=O)/C=C/c2ccc(OC)cc2)CC1
- IC50 (Beta-galactosidase): > 80 µM (inactive)

SMILES: CC1NC(C)c2c(ccc3ccccc23)O1 (configuration not stated)
- IC50 [2]: 114 µM (active)
- EC50 (cells [3]): > 29.9 µM (inactive)
- IC50 (cells [4]): > 29.9 µM (inactive)

SMILES: CCOC(=O)c1cc(S(=O)(=O)N2CCc3ccccc32)cn1C
- AC50 (Vero): 17.9 µM (active)
- EC50 [5]: > 195 µM (not active)

SMILES: C=CCNC1=C(N2CCSCC2)C(=O)c2ccccc2C1=O
- AC50 [6]: 24.3 µM (active)
- AC50 [7]: 8.56 µM (active)

SMILES: CNc1nc(NCCOc2ccccc2)c2sccc2n1
- AC50 [8]: 38.3 µM (active)
- AC50 [9]: 4.2 µM (active)

SMILES: CC(=O)NC1=C(c2ccc(Cl)cc2)C(=O)c2ccccc2C1=O
- AC50 [6]: 12.4 µM (active)
- AC50 [7]: 9.22 µM (active)

SMILES: O=c1cc(-c2ccccc2)oc2cc(O)cc(O)c12 [CHRYSIN]
- AC50 (Cytochrome P450 2D6): 12.6 µM (inconclusive)
- AC50 (Cytochrome P450 2C9): 5.01 µM (inconclusive)
- IC50 (cells [10]): > 67.6 µM (inactive)
- AC50 (Cytochrome P450 3A4): 3.16 µM (inconclusive)
- IC50 [11]: > 67.6 µM (inactive)

SMILES: COC(=O)C1=C(C)N(Cc2ccc(C(F)(F)F)cc2)C(NCc2ccccc2)=NC1c1cccc(F)c1 (configuration not stated)
- AC50 (Paired box protein Pax-8): 26.8 µM (active)
- AC50 [12]: 23.4 µM (active)

SMILES: COc1ccc(OCC(=O)N2CCc3ccccc3C2)cc1
- EC50 (cells [3]): > 29.9 µM (inactive)
- IC50 (cells [4]): > 29.9 µM (inactive)

SMILES: CCOC(=O)N1CCN(C(=O)c2cc3cc(Cl)ccc3[nH]2)CC1
- IC50 (Beta-galactosidase): > 80 µM (inactive)

SMILES: CCC(CO)Oc1cc(NC(=O)c2cccc(OC)c2)c2ncn(C(C)C)c2c1 (configuration not stated)
- IC50 [13]: 12.7 µM (active)
- IC50 [14]: > 66.6 µM (inactive)
- IC50 [15]: 36.6 µM (inactive)

SMILES: CCNC(=O)C[C@@H]1CC[C@@H]2[C@H](COc3ccc(NC(=O)Nc4cccc(Cl)c4)cc3C(=O)N2C)O1
- AC50 [8]: 4.02 µM (active)
- AC50 [9]: < 0.195 µM (active)

SMILES: Oc1ccc(/C=N/Nc2cc(N3CCOCC3)nc(N3CCOCC3)n2)cc1O
- CC50 [1]: 100 µM (active)
- IC50 [16]: 28.9 µM (active)
- IC50 [2]: 52.1 µM (active)
- IC50 (Large T antigen): 23.1 µM (active)
- AC50 [17]: 7.86 µM (active)

SMILES: O=C1Cc2c([nH]c3ccc(Br)cc23)-c2ccccc2N1 [KENPAULLONE]
- IC50 (cells [10]): > 67.5 µM (inactive)
- IC50 [11]: > 0.834 µM (active)

SMILES: COc1ccc(C(=O)NCCNc2nc3c(C)cccc3cc2C#N)cc1OC
- AC50 (Vero): 25.7 µM (active)
